Consider 18 compounds from patent US7074789B2, “Kinase inhibitors” (Amgen Inc., priority 1999, dated 2006).

Common to all, as to type: biochemical
The target of assay [1] is T1, AKT (Homo sapiens, UniProt Q9Y243).
T1 construct: Kinases are expressed as either kinase domains or full length constructs; made in house
Kind of assay: Kinase inhibition assay (33P transfer), AKT. The settings on record: Table 2, kinase inhibition class; read-out: AKT3-1. From the text:
The inhibitor compounds described herein are screened in the following manner. Kinases suitable for use in the following protocol to determine kinase activity of the compounds described herein include, -but are not limited to: Lck, Lyn, Src, Fyn, Syk, Zap-70, Itk, Tec, Btk, EGFR, ErbB2, Kdr, Flt-1, Flt-3, Tek, c-Met, InsR, and AKT.
Kinases are expressed as either kinase domains or full length constructs fused to glutathione S-transferase (GST) or polyHistidine tagged fusion proteins in either E. colior Baculovirus-High Five expression systems. […] In some instances, kinases are co-expressed or mixed with purified or partially purified regulatory polypeptides prior to measurement of activity.
Briefly, The transfer of ^33PO4 from ATP to the synthetic substrates poly(Glu, Tyr) 4:1 or poly(Arg, Ser) 3:1 attached to the bioactive surface of microtiter plates serves as the basis to evaluate enzyme activity. After an incubation period, the amount of phosphate transferred is measured by first washing the plate with 0.5% phosphoric acid, adding liquid scintillant, and then counting in a liquid scintillation detector.

In assay [2] the target is T2, EGFR (Homo sapiens, UniProt P00533).
T2 construct: Kinases are expressed as either kinase domains or full length constructs; made in house
Kind of assay: Kinase inhibition assay (33P transfer), EGFR. The following applies: Table 2, kinase inhibition class; read-out: EGFR-1. Summed up: (§1)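 Steps: coat wells with poly(Glu,Tyr) 4:1 or poly(Arg,Ser) 3:1; add purified kinase, [33P]ATP and inhibitor; incubate; wash with 0.5% phosphoric acid; add liquid scintillant; count. IC50 corresponds to half-maximal reduction of bound 33P.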

The target in assay [3] is T3, Kdr (Homo sapiens, UniProt P35968).
T3 construct: Kinases are expressed as either kinase domains or full length constructs; made in house
Kind of assay: Kinase inhibition assay (33P transfer), Kdr. The following applies: read-out: KDR-1. Summed up:
(§2)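 33P-ATP transfer to coated synthetic polymer substrates; acid wash (0.5% H3PO4), scintillant, liquid scintillation count. Enzymes: His- or GST-fusion kinases from E. coli or High Five insect cells.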

Assay [4] concerns the target T4, Lck (Homo sapiens, UniProt P06239).
T4 construct: Kinases are expressed as either kinase domains or full length constructs; made in house
Briefly: Kinase inhibition assay (33P transfer), Lck. The following applies: read-out: Lck-1. Summed up:
as §2

The target in assay [5] is T5, Itk (Homo sapiens, UniProt Q08881).
T5 construct: Kinases are expressed as either kinase domains or full length constructs; made in house
T5 sequence (Q08881 1-620): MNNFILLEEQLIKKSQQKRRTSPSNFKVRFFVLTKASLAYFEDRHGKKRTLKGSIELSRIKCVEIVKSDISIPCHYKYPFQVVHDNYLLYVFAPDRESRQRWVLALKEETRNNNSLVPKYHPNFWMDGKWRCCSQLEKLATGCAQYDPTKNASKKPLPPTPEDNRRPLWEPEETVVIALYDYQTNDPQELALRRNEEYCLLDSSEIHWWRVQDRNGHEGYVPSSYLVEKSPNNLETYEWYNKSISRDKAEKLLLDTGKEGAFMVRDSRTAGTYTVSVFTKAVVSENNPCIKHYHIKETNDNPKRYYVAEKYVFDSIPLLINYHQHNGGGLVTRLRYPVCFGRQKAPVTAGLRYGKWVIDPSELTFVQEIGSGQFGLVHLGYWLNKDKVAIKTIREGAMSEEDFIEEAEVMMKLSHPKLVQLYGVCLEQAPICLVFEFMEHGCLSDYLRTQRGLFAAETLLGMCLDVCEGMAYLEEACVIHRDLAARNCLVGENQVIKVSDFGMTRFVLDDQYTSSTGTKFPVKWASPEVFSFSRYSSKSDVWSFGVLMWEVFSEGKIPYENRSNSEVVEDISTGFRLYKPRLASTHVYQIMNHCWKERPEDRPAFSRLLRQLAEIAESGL
Briefly: Kinase inhibition assay (33P transfer), Itk. The following applies: read-out: Itk-1. Summed up: as §1

For assay [6], the target named is T6, Zap-70 (Homo sapiens, UniProt P43403).
T6 construct: Kinases are expressed as either kinase domains or full length constructs; made in house
T6 sequence (P43403 1-619): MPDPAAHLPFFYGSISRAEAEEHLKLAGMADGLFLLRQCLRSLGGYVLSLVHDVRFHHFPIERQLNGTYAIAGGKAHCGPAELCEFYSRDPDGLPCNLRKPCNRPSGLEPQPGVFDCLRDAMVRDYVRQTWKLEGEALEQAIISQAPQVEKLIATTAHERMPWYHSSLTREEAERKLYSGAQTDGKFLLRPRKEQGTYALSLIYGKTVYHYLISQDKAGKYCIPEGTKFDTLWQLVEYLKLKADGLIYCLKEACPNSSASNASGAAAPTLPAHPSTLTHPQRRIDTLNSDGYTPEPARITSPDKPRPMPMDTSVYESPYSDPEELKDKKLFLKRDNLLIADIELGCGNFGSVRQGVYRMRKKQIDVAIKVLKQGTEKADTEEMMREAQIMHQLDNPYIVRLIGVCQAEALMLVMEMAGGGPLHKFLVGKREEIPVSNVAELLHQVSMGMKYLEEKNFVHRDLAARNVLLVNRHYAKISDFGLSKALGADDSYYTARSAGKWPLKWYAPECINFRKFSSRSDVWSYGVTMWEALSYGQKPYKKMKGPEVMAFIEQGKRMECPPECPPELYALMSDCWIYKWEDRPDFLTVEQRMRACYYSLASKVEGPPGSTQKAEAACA
Kind of assay: Kinase inhibition assay (33P transfer), Zap-70. The settings on record: read-out: Zap-1. In short, it runs like this:
as §2

For assay [7], the target named is T7, c-Met (Homo sapiens, UniProt P08581).
T7 construct: Kinases are expressed as either kinase domains or full length constructs; made in house
Briefly: Kinase inhibition assay (33P transfer), c-Met. The following applies: Table 2, kinase inhibition class; read-out: Met-1. In short, it runs like this:
as §1

T4 sequence (P06239 whole entry, species assumed, the tested form may be a part): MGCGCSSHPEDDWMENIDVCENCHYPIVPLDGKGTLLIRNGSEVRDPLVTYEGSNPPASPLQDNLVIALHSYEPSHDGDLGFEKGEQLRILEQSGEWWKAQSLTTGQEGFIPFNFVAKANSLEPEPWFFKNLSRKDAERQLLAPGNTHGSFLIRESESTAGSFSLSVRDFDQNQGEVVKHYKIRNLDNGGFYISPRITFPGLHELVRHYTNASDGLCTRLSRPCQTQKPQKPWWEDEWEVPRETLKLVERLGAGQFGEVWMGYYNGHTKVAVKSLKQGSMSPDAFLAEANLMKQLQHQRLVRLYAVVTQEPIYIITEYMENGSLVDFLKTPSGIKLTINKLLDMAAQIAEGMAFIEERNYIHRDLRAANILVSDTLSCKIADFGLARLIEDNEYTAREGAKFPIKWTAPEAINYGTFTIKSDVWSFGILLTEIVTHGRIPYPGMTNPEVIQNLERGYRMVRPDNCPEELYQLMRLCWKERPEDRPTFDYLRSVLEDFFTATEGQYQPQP
T2 sequence (P00533 25-1210, species assumed): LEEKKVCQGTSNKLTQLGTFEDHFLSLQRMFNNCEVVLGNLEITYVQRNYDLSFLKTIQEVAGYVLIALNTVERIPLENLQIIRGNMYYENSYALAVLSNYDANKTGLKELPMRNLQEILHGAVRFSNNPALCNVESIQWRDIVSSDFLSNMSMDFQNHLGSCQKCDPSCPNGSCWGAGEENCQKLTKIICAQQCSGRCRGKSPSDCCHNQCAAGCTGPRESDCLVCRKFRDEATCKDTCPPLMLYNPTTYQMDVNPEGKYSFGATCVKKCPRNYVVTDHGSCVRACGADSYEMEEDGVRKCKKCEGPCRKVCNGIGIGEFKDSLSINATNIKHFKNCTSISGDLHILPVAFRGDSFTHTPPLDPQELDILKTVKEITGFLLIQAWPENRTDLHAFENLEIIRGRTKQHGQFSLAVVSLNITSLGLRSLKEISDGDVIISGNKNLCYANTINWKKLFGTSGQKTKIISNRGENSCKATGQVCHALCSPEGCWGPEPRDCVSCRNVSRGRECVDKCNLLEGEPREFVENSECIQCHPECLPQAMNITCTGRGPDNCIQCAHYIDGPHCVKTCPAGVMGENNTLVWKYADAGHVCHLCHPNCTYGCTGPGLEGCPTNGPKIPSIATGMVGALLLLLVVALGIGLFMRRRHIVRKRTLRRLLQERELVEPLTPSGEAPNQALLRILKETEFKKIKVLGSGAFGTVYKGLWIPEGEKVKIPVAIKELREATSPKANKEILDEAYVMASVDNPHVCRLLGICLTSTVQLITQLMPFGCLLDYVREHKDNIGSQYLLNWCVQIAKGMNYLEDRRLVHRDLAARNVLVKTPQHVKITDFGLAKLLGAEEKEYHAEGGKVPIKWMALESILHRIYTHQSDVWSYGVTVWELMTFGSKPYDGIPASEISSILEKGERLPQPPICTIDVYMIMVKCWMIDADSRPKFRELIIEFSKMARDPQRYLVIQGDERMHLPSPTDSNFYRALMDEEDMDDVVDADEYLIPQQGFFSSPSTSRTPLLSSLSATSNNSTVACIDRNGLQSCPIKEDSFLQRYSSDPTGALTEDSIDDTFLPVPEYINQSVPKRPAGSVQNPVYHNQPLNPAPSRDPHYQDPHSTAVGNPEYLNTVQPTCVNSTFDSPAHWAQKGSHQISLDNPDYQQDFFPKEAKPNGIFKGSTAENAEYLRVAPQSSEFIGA
T3 sequence (P35968 20-1356, species assumed): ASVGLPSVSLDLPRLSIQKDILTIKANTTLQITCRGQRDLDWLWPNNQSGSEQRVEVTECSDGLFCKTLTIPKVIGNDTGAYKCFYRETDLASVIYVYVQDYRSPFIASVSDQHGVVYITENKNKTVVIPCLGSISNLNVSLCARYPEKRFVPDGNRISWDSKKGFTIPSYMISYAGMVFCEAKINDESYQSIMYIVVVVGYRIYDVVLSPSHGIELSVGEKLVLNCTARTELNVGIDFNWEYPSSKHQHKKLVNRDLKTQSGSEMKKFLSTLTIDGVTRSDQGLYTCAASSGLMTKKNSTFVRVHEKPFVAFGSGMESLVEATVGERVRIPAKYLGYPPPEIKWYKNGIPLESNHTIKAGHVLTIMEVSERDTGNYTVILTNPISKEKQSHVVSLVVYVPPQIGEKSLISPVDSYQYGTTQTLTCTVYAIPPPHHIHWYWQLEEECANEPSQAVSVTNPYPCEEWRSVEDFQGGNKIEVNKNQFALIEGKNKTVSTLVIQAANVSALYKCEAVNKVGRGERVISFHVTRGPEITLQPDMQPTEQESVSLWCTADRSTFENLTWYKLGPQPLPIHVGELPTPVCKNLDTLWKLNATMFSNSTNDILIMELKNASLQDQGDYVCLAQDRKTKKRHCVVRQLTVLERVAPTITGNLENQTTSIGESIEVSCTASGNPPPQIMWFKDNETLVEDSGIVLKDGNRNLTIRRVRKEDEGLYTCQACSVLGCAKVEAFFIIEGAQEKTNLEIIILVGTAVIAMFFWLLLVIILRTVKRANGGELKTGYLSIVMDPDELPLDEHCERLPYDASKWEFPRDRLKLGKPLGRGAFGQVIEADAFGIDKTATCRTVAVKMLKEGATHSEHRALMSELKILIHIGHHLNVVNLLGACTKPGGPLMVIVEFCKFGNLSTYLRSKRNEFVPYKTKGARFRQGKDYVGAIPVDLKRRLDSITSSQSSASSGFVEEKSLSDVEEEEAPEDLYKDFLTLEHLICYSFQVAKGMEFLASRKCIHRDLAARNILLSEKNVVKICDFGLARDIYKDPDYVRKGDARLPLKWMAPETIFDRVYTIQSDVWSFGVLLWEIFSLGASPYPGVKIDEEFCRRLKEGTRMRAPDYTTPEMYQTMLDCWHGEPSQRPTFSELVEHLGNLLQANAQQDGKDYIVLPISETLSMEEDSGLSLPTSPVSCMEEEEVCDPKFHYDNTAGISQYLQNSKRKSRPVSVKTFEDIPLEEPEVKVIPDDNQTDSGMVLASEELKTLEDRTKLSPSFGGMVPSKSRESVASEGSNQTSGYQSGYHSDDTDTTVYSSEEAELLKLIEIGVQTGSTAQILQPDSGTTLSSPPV
T7 sequence (P08581 25-1390): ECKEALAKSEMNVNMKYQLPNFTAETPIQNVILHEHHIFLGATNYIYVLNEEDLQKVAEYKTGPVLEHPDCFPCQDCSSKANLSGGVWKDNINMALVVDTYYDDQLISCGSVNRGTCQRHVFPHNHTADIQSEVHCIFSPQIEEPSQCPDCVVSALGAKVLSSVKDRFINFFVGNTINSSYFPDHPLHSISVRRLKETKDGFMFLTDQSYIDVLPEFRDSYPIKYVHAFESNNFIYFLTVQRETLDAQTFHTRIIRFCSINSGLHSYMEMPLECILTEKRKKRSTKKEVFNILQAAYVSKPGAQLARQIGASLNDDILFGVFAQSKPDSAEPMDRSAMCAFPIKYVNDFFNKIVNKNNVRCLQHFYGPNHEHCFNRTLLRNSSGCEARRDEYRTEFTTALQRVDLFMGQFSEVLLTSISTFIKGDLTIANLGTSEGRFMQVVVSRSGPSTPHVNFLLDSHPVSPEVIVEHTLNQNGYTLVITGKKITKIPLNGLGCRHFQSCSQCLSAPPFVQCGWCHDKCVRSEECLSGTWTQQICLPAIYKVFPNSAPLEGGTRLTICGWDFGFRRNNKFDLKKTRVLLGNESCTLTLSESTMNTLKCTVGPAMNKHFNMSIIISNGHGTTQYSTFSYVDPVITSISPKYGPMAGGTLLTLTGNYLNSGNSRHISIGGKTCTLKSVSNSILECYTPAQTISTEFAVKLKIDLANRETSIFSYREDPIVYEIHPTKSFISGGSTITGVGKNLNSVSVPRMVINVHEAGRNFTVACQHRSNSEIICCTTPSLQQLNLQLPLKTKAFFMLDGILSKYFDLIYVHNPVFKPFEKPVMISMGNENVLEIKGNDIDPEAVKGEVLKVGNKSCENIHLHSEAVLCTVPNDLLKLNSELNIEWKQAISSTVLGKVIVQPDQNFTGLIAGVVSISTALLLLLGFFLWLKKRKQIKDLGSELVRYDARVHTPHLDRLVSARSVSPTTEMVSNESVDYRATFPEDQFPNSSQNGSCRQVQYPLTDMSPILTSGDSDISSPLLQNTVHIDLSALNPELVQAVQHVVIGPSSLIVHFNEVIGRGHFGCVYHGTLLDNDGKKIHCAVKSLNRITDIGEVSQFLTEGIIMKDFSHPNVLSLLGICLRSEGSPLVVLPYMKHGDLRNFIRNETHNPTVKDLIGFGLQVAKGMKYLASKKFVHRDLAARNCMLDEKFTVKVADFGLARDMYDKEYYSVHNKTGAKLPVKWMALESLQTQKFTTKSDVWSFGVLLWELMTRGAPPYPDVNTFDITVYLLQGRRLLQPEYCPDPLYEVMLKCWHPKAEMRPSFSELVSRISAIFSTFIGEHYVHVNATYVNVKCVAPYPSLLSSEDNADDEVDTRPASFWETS
T1 sequence (Q9Y243 whole entry, the tested form may be a part): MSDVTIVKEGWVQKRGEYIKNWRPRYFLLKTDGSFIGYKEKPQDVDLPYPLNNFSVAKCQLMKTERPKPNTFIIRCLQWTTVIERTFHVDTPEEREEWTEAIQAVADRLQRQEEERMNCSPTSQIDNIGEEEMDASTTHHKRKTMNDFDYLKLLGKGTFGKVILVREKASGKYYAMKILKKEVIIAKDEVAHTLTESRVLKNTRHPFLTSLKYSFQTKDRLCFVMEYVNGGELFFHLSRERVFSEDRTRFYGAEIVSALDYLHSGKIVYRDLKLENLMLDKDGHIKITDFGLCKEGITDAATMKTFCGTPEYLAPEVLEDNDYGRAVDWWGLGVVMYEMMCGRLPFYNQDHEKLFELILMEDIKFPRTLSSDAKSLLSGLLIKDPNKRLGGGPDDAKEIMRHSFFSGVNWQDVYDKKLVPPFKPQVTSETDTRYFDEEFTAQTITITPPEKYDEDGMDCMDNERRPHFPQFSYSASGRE

For `O=c1[nH]c2ccccc2n1-c1ncnc(Nc2ccccc2Cl)n1` [Compound 484], the IC50 was over 13.3 µM in assay [1]; 1.18 to 7.08 µM in assay [2]; over 13.3 µM in assay [3]; over 13.3 µM in assay [4]; over 13.3 µM in assay [5]; over 13.3 µM in assay [6]. Also, the IC50 in assay [7] lay in the range of 7.08 to 10.3 µM.
Turning to `N#Cc1ccc(Nc2ncnc(-n3c(=O)[nH]c4ccccc43)n2)cc1` [Compound 485], the IC50 in assay [1] is over 13.7 µM; in assay [2] it was over 13.7 µM; in assay [3], 1.21 to 7.29 µM; in assay [4] it was over 13.7 µM; in assay [5], over 13.7 µM; in assay [6], over 13.7 µM. Further, the IC50 in assay [7] was over 13.7 µM.
On to `N#Cc1cccc(Nc2ncnc(-n3c(=O)[nH]c4ccccc43)n2)c1` [Compound 486], for which the IC50 in assay [1] is over 13.7 µM; in assay [2] it was over 13.7 µM; in assay [3] it was 1.21 to 7.29 µM; in assay [4], 1.21 to 7.29 µM; in assay [5] it was over 13.7 µM; in assay [6] it was over 13.7 µM. For the same compound, in assay [7], the IC50 is over 13.7 µM.
As to `O=c1[nH]c2ccccc2n1-c1ncnc(Nc2ccccn2)n1` [Compound 487], the IC50 in assay [1], in assay [2], in assay [3], in assay [4], in assay [5] and in assay [6] was over 14.7 µM in each case. In addition, the IC50 in assay [7] was over 14.7 µM.
In the case of `O=c1[nH]c2ccccc2n1-c1ncnc(Nc2ccncc2)n1` [Compound 488], the IC50 in assay [1] was over 14.7 µM; in assay [2], over 14.7 µM; in assay [3], 1.31 to 7.86 µM; in assay [4], over 14.7 µM; in assay [5], over 14.7 µM; in assay [6], over 14.7 µM. The IC50 in assay [7] is over 14.7 µM.
On to `COc1ccc(Nc2ncnc(-n3c(=O)[nH]c4ccccc43)n2)cn1` [Compound 489], for which the IC50 in assay [1], in assay [2], in assay [3], in assay [4], in assay [5] and in assay [6] was over 13.4 µM each time. Further, the IC50 in assay [7] is over 13.4 µM.
For the compound `O=c1[nH]c2ccccc2n1-c1ncnc(Nc2ncccn2)n1` [Compound 490], the IC50 in assay [1], in assay [2], in assay [3], in assay [4], in assay [5] and in assay [6] was over 14.7 µM each time. For the same compound, the IC50 in assay [7] is over 14.7 µM.
In the case of `CC(C)(C)c1cc(Nc2ncnc(Nc3cccc(CO)c3)n2)[nH]n1` [Compound 499], the IC50 in assay [1] is over 13.3 µM; in assay [2] it was 1.18 to 7.07 µM; in assay [3], 1.18 to 7.07 µM; in assay [4], 1.18 to 7.07 µM; in assay [5], 1.18 to 7.07 µM; in assay [6], over 13.3 µM. Besides, the IC50 in assay [7] fell in the range of 1.18 to 7.07 µM.
For the compound `CC(C)(C)c1cc(Nc2ncnc(Nc3cccc(C(N)=O)c3)n2)[nH]n1` [Compound 500], the IC50 in assay [1] was over 12.8 µM; in assay [2] it was 1.14 to 6.81 µM; in assay [3], 1.14 to 6.81 µM; in assay [4], 1.14 to 6.81 µM; in assay [5] it was 1.14 to 6.81 µM; in assay [6] it was over 12.8 µM. The IC50 in assay [7] lay in the range of 1.14 to 6.81 µM.
On to `CC(C)(C)c1cc(Nc2ncnc(Nc3ccc(CO)cc3)n2)[nH]n1` [Compound 501], for which the IC50 in assay [1] is over 13.3 µM; in assay [2] it was 1.18 to 7.07 µM; in assay [3], 1.18 to 7.07 µM; in assay [4] it was 1.18 to 7.07 µM; in assay [5] it was 1.18 to 7.07 µM; in assay [6], over 13.3 µM. For the same compound, in assay [7], the IC50 is under 1.18 µM.
Regarding `CC(C)(C)c1cc(Nc2ncnc(Nc3ccc(C(N)=O)cc3)n2)[nH]n1` [Compound 502], the IC50 in assay [1] was 1.14 to 6.81 µM; in assay [2], 1.14 to 6.81 µM; in assay [3], 1.14 to 6.81 µM; in assay [4], 1.14 to 6.81 µM; in assay [5] it was 1.14 to 6.81 µM; in assay [6], over 12.8 µM. For the same compound, the IC50 in assay [7] lay in the range of 1.14 to 6.81 µM.
Take `O=c1[nH]c2ccccc2n1-c1ncnc(Nc2cc(Cl)cc(Cl)c2)n1` [Compound 503]: the IC50 in assay [1] is over 12.1 µM; in assay [2] it was over 12.1 µM; in assay [3], over 12.1 µM; in assay [4], 9.38 to 12.1 µM; in assay [5], over 12.1 µM; in assay [6], 9.38 to 12.1 µM. Also, the IC50 in assay [7] is over 12.1 µM.
For `CN(C)c1ccc(Nc2ncnc(-n3c(N)nc4ccccc43)n2)cc1` [Compound 527], the IC50 in assay [1] is over 13 µM; in assay [2], 6.93 to 10.1 µM; in assay [3] it was under 1.15 µM; in assay [4], 1.15 to 6.93 µM; in assay [5] it was 1.15 to 6.93 µM; in assay [6], over 13 µM. Moreover, the IC50 in assay [7] fell in the range of 1.15 to 6.93 µM.
With `O=c1[nH]c2ccccc2n1-c1ncnc(Nc2cccc(S(=O)(=O)CCO)c2)n1` [Compound 681], the IC50 in assay [1] was over 10.9 µM; in assay [2], over 10.9 µM; in assay [3], 0.97 to 5.82 µM; in assay [4], over 10.9 µM; in assay [5] it was over 10.9 µM; in assay [6], over 10.9 µM. For the same compound, the IC50 in assay [7] is over 10.9 µM.
As for `O=c1[nH]c2ccccc2n1-c1ncnc(Nc2ccc(O)cc2)n1` [Compound 682], the IC50 was over 14 µM in assay [1]; 1.25 to 7.49 µM in assay [2]; 1.25 to 7.49 µM in assay [3]; 7.49 to 10.9 µM in assay [4]; 10.9 to 14 µM in assay [5]; over 14 µM in assay [6]. The IC50 in assay [7] fell in the range of 7.49 to 10.9 µM.
With `O=c1[nH]c2ccccc2n1-c1ncnc(Nc2cccc3ccccc23)n1` [Compound 683], the IC50 in assay [1], in assay [2], in assay [3], in assay [4], in assay [5] and in assay [6] was over 12.7 µM each time. Besides, the IC50 in assay [7] was over 12.7 µM.
As for `O=c1[nH]c2ccccc2n1-c1ncnc(Nc2ccc3ccccc3c2)n1` [Compound 684], the IC50 in assay [1] was over 12.7 µM; in assay [2], over 12.7 µM; in assay [3], 6.77 to 9.88 µM; in assay [4] it was over 12.7 µM; in assay [5], over 12.7 µM; in assay [6], over 12.7 µM. Besides, the IC50 in assay [7] was over 12.7 µM.
Take `O=c1[nH]c2ccccc2n1-c1ncnc(Nc2ccc3[nH]ncc3c2)n1` [Compound 685]: the IC50 in assay [1], in assay [2], in assay [3], in assay [4], in assay [5] and in assay [6] was over 13.1 µM each time. In addition, in assay [7], the IC50 is over 13.1 µM.
